Assays:
[1] = tested on: CD8 positive cytotoxic T-cells; experiment: Quantification of CD8 positive cells in muscle; type: in vivo, mouse; conditions: 240 mg/kg i.p. twice daily for 5 weeks, quadriceps
Procedure: 240 mg/kg body weight of VPA was injected intraperitoneally twice daily into mdx/utrn^−/− mice (n=9) starting at 3 weeks of age, for a period of 5 weeks. Control mice were injected with saline (n=9). Body-weights were determined daily. 8 μm thick cryosections of the quadriceps muscles of saline and VPA injected mice were made. Cytotoxic T-cells were detected with a FITC-labeled rat anti-mouse CD8a antibody (BD Pharmingen, San Diego, Calif.) as follows: the sections were fixed in 4% paraformaldehyde for 5 minutes, washed in PBS three times for 5 minutes each, blocked with 5% BSA/PBS for 1 hour, anti-CD8 antibody added at 1:1000 dilution for 1 hour and washed in 1% BSA/PBS three times for 5 minutes each. The sections were mounted in Vectashield containing DAPI (Vector Laboratories). The number of CD8 positive cells and the total number of nuclei in the same field were counted in ten random fields for each mouse. The ratio of the number of CD positive cells to the total number of nuclei were calculated, averaged and plotted for the saline and VPA treated groups.

mdx/utrn−/− mice = experiment: Quantification of Evan's blue dye uptake in quadriceps; type: in vivo, mouse; conditions: 240 mg/kg i.p. twice daily for 5 weeks
Procedure: mdx/utrn−/− mice lack both dystrophin and utrophin, and were bred and genotyped as reported in Burkin, et al., Enhanced expression of the alpha 7 beta 1 integrin reduces muscular dystrophy and restores viability in dystrophic mice, J. Cell Biol. 152:1207-18 (2001). 240 mg/kg body weight of VPA was injected intraperitoneally twice daily into mdx/utrn^−/− mice (n=9) starting at 3 weeks of age, for a period of 5 weeks. Control mice were injected with saline (n=9). Body-weights were determined daily. On the 35th day of injection of VPA, mice were injected intraperitoneally with 100 mg/kg body weight of Evan's blue dye. After 24 hours, the quadriceps muscles were collected, frozen in liquid nitrogen-cooled isopentane and stored at −80° C. 8 μm cryosections of quadriceps were fixed in ice-cold methanol for 1 minute and washed in PBS three times for 5 minutes each. To delineate muscle fibers, the sections were incubated for 10 minutes at room temperature in FITC-conjugated wheat-germ agglutinin (WGA) (Invitrogen) diluted 1:500 in PBS. The sections were washed three times in PBS, 5 minutes each time, and the percentage of Evan's blue dye positive fibers in three sections taken 40 μm apart were counted (approximately 5000 fibers total) for each mouse.

α7B integrin = experiment: Western blotting of α7B integrin in α7+/− myotubes; type: cell-based, mouse; conditions: 2 mM VPA for 72 hours
Procedure: α7^+/− myogenic cells were cultured on 1% gelatin-coated plastic plates in Ham's F-10 growth medium (20% FBS, 0.5% chick embryo extract, 5 ng/ml bFGF, 2 mM glutamine, 100 U/ml penicillin and 100 μg/ml streptomycin). After six passages, cells were grown in DMEM containing 20% FBS, 0.5% chick embryo extract, 2 mM glutamine, 100 U/ml penicillin and 100 μg/ml streptomycin. Differentiation was induced by switching the medium to DMEM containing 2% horse serum and antibiotics when cells attained 90% confluence. After 48 hours of differentiation, 2 mM VPA was added and supplied fresh every 24 hours. Wortmannin was used at 100 nM and added fresh every 24 hours.
Cell lysates of differentiating cells on 60 mm dishes were prepared as follows: the cells were washed twice with PBS and 200 μl Triton X-100 lysis buffer (2% Triton X-100, 20 mM Tris-Cl, pH 7.4, 150 mM NaCl, 1 mM EDTA, 1 mM EGTA, 2.5 mM NaPPi, 1 mM β-glycerophosphate, 1 mM sodium vanadate, 1:200 Protease Inhibitor Cocktail (EMD Chemicals, San Diego, Calif.) and 1 mM PMSF) were added. […] Protein concentrations were determined by the Bradford assay. […] The supernatants were collected and protein concentrations were determined spectrophotometrically at OD260 and OD280. […] ImageQuant analysis software (Molecular Dynamics, Sunnyvale, Calif.) was used to quantify band intensity.

CCCC(CCC)C(=O)O [VPA, valproic acid]
decrease of CD8 positive cytotoxic T-cell content [1]: approximately 2.1 fold
fewer damaged (Evans blue positive) fibers than saline (mdx/utrn−/− mice): approximately 2 fold
α7B integrin isoform increase (α7B integrin): 1.5 fold

Reference: patent US20120003191A1, “VALPROIC ACID, DERIVATIVES, ANALOGUES, AND COMPOSITIONS INCLUDING SAME AND METHODS FOR THEIR THERAPEUTIC USE” (priority 2009, published 2012)
